Experimental data published in US20020058636A1, “RIBOZYMES TARGETING THE RETROVIRAL PACKAGING SEQUENCE EXPRESSION CONSTRUCTS AND RECOMBINANT RETROVIRUSES CONTAINING SUCH CONSTRUCTS” (priority 1994, published 2002).

What was measured:
Type in all cases: cell-based
HIV-1 (SF2) [1] = test: Syncitia formation of infected SupT1 cells over days post infection
Experimental: The anti-HIV packaging site construct, pSV-Rz-HIV-Psi, was electroporated into Sup T-1 cells, a human T lymphoma cell line. Exponentially growing cells were harvested and the number of viable cells counted by dye exclusion. The cells were washed with PBS and resuspended at a density of 1×10^7 viable cells/ml in RPMI media without FCS but containing 10 m,M dextrose and 0.1 mM dithiothreitol. 0.4 ml of the cell suspension and 10 μg of pSV-Rz-HIV-Psi plasmid DNA were used per electroporation in 0.4 cm cuvettes (Bio-Rad) . The cell and DNA mixture was subjected to a single pulse of 960 μF, 200V from a Gene Pulser (Bio-Rad) . After shocking, the cuvette was incubated for 10 minutes at room temperature, and the cells were then transferred to 10 ml of RPMI media with 10% FCS and placed into an incubator (5%CO2, 37° C.). At 48 hours post electroporation, the cells were selected in medium supplemented with 800 μg/ml G418. 9-12 days later, positive colonies were isolated and grown as clonal isolates to be used in a HIV protection assay.
(§1) Two assays, p24 antigen and syncytium formation, were performed to assess efficacy of the anti-HIV Psi ribozyme construct in cell culture. HIV-1 p24 antigen assay is an enzyme immunoassay, which uses a murine monoclonal antibody against HIV core antigen coated onto microwell strips. The HIV-1 syncytium assay is based on the observation that HIV-1 interacts with target T lymphocytes by causing fusion resulting in the formation of syncytia, large cells containing many nuclei. The clonal ribozyme-construct expressing cells, plus controls, were infected with HIV-1 (SF2) at m.o.i. of 0.1 to 1. After 2 hours, the cells were washed, and 10 ml of fresh media was added. Every 3-4 days, the number of both syncitia and viable cells were counted. […] In addition, the presence of the ribozyme caused a delay in syncitia formation (Table 4).

HIV-1 (SF2) [2] = test: HIV-1 p24 antigen assay in ribozyme-expressing Sup T-1 cells
Experimental: Vector, is the control construct. Rz-2 and Rz-M are two ribozyme constructs targeted to the tat gene of HIV. Rz-M is a multi-ribozyme containing several ribozymes targeted to different sites within tat. This includes the site targeted by Rz-2.
as §1
In another experimental protocol, the cells were pelleted, and an aliquot of the supernatant taken for p24 assay. In this experiment there was an inhibition of p24 levels to day 22 post challenge.

HIV-1 IIIB = test: BM12 antibody and ribozyme expression, p24 production in SupT1 cells; conditions: BM12 Concentration 0.00 μg/ml
Experimental: The anti-HIV-1 antibody BM12 has been tested for its potential combined effect with ribozymes on HIV-1 replication. Rz2 (a single ribozyme targeted to the HIV-1 tat gene) and SV2neo vector expressing SupT1 cells were infected with HIV-1 IIIB virus for 2 hr and then washed. The cells were resuspended in BM12 antibody containing medium (0, 0.5, 5, 50 μg BM12 antibody/ml) and incubated at 37° C., 5% CO2. Samples of medium were taken at days 3, 5, 9, 12 and 15 for p24 assays. Cytopathic effect (CPE) determined by syncytia formation was monitored at days 3, 6, 9, 12. […] The following Table 6 summarizes the p24 data at day 15.

Row | Sequence | Syncitia formation (HIV-1 (SF2) [1]; 6 Days Post Infection) | Syncitia formation (HIV-1 (SF2) [1]; 7 Days Post Infection) | Syncitia formation (HIV-1 (SF2) [1]; 8 Days Post Infection) | Syncitia formation (HIV-1 (SF2) [1]; 9 Days Post Infection) | Syncitia formation (HIV-1 (SF2) [1]; 10 Days Post Infection) | Syncitia formation (HIV-1 (SF2) [1]; 11 Days Post Infection) | inhibition of HIV-1 replication (HIV-1 (SF2) [2]) | p24 Production at Day 15 (HIV-1 IIIB) [ng/mL]
1 | GTCAAAAATTGGCGCTGATGAGTCCGTGAGGACGAAACTCACCAGTCGCCG (chemistry not given here) [Rz-Psi, single anti-HIV Psi packaging site ribozyme cloned into neo r gene of pSV2neo] | − (−, no syncytia) | − (−, no syncytia) | − (−, no syncytia) | − (−, no syncytia) | − (−, no syncytia) | − (−, no syncytia) | – | –
2 | TTAGGATCCTGATGAGTCCGTGAGGACGAAACTGGCTC (chemistry not given here) [Rz-2, single ribozyme targeted to the HIV-1 tat gene] | – | – | – | – | – | – | effective in inhibiting HIV-1 replication | 1.90
